Assay results: patent US8853230B2, “Inhibitors of JAK” (Portola Pharmaceuticals, Inc., priority 2009, dated 2014)

Key:
[1] = test system: IL4-induced phospho STAT6 formation in Ramos B lymphocytes; assay: Inhibition of IL4-induced phospho STAT6 formation in Ramos B lymphocytes (flow cytometry); type: cell-based, human; settings: Homo sapiens; for inhibition at 0.2 µM: 200 nM compound, read-out: % Inhibition of IL-4 Induced STAT6 Phosphorylation 200 nM; for inhibition at 1 µM: 1 μM compound, read-out: % Inhibition of IL-4 Induced STAT6 Phosphorylation 1 μM
How it was run: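 Read-out: phospho-STAT6 (Y641) mean fluorescent intensity by intracellular flow cytometry, expressed as inhibition of the IL4-induced signal. Ramos B lymphocytes were given compound for 1 h at 37°C, then 1 ng/ml IL4 for 10 min, before fixation and methanol permeabilization.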

JAK3 = target: T1, JAK3 (Homo sapiens, UniProt P52333); assay: Z'-LYTE kinase assay, JAK3 tyrosine phosphorylation activity; type: biochemical
T1 construct: 5 μl of catalytic domain recombinant Kinase enzyme+Tyr peptide substrate (Invitrogen, Calif.); purchased Invitrogen
T1 sequence (P52333 822-1111 limits assumed): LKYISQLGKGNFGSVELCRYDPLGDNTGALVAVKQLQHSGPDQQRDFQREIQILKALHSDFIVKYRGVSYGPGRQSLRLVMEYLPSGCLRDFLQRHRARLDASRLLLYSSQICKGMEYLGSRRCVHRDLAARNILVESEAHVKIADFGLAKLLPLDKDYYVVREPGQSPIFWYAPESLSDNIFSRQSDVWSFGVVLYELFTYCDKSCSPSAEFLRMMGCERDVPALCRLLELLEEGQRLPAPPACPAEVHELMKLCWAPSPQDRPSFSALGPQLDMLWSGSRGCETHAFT
How it was run: (§1)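 Catalytic-domain recombinant enzymes phosphorylate a coumarin/fluorescein-labelled Tyr6 peptide for 1 h at room temperature in the presence of ATP and compound (1% DMSO). Development Reagent then cleaves non-phosphorylated peptide over 1 h, and emission ratio 445/520 nm (ex 400 nm) gives percent phosphorylation; IC50 by 4-parameter logistic model.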

JAK2 = target: T2, JAK2 (Homo sapiens, UniProt O60674); assay: Z'-LYTE kinase assay, JAK2 tyrosine phosphorylation activity; type: biochemical
T2 construct: 5 μl of catalytic domain recombinant Kinase enzyme+Tyr peptide substrate (Invitrogen, Calif.); purchased Invitrogen
T2 sequence (O60674 849-1124 limits assumed): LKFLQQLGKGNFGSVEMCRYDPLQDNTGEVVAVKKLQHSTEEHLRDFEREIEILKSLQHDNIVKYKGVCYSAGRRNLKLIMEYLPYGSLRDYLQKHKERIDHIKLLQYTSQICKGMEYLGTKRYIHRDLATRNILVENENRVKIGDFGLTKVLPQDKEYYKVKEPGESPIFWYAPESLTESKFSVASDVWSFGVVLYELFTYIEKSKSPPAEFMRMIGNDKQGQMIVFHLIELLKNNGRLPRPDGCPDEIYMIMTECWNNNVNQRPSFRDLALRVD
How it was run: as §1

JAK1 = target: T3, JAK1 (Homo sapiens, UniProt P23458); assay: Z'-LYTE kinase assay, JAK1 tyrosine phosphorylation activity; type: biochemical; settings: read-out: JAK 1 IC50
T3 construct: 5 μl of catalytic domain recombinant Kinase enzyme+Tyr peptide substrate (Invitrogen, Calif.); purchased Invitrogen
T3 sequence (P23458 875-1153 limits assumed): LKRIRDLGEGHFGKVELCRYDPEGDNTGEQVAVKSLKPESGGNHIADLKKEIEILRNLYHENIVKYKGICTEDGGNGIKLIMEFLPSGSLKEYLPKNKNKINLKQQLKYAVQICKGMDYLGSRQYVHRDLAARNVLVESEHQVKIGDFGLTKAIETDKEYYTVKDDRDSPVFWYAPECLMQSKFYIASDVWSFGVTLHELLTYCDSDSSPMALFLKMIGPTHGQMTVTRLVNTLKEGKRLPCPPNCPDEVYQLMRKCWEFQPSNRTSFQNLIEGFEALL
How it was run: as §1

Syk = Syk (Homo sapiens, UniProt P43405); assay: Syk IC50 (Table 1; method not given); type: biochemical
TYK2 = target: T4, TYK2 (Homo sapiens, UniProt P29597); assay: Z'-LYTE kinase assay, TYK2 tyrosine phosphorylation activity; type: biochemical
T4 construct: 5 μl of catalytic domain recombinant Kinase enzyme+Tyr peptide substrate (Invitrogen, Calif.); purchased Invitrogen
T4 sequence (P29597 897-1176 limits assumed): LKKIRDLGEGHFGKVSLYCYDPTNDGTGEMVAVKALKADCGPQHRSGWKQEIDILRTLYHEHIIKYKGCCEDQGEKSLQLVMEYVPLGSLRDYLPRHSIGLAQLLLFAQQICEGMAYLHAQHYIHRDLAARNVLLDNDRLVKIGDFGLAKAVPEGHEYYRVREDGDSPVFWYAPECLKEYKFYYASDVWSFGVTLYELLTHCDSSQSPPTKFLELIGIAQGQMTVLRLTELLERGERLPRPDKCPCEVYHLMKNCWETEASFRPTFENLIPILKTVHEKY
How it was run: as §1

Compound | inhibition at 0.2 µM [1] [%] | inhibition at 1 µM [1] [%] | IC50 (JAK3) [nM] | IC50 (JAK2) [nM] | IC50 (JAK1) [nM] | IC50 (Syk) [nM] | IC50 (TYK2) [nM]
CC(=O)Nc1cccc(Nc2ncc(C(N)=O)c(NCc3ccccc3)n2)c1 [Example 17, 2-(3-acetamidophenylamino)-4-(benzylamino)pyrimidine-5-carboxamide] | 34 | 73.7 | < 1 | 1 to 10 | 10 to 100 | 100 to 1000 | 1 to 10
NC(=O)c1cnc(Nc2cccc(NC(=O)C3CCC3)c2)nc1NC1CCCC1 [Example 20, 2-(3-(cyclobutanecarboxamido)phenylamino)-4-(cyclopentylamino)pyrimidine-5-carboxamide] | 41.3 | 89.6 | 1 to 10 | 10 to 100 | 10 to 100 | 100 to 1000 | 1 to 10
CCOC(=O)Nc1cccc(Nc2ncc(C(N)=O)c(NC3CCCC3)n2)c1 [Example 24, ethyl 3-(5-carbamoyl-4-(cyclopentylamino)pyrimidin-2-ylamino)phenylcarbamate] | 24.7 | 71.3 | 10 to 100 | 100 to 1000 | 100 to 1000 | 100 to 1000 | 10 to 100
NC(=O)c1cnc(Nc2cccc(NC(=O)C3CC3)c2)nc1NCc1ccccc1 [Example 26, 4-(benzylamino)-2-(3-(cyclopropanecarboxamido)phenylamino)pyrimidine-5-carboxamide] | 7.3 | 45.7 | 1 to 10 | 10 to 100 | 100 to 1000 | > 1000 | 1 to 10
NC(=O)c1cnc(Nc2cccc(NC(=O)C3CCC3)c2)nc1NCc1ccccc1 [Example 27, 4-(benzylamino)-2-(3-(cyclobutanecarboxamido)phenylamino)pyrimidine-5-carboxamide] | 7 | 54.3 | 1 to 10 | 10 to 100 | 100 to 1000 | > 1000 | 10 to 100
CCC(=O)Nc1cccc(Nc2ncc(C(N)=O)c(NCc3ccccc3)n2)c1 [Example 28, 4-(benzylamino)-2-(3-propionamidophenylamino)pyrimidine-5-carboxamide] | 32 | 77.7 | 1 to 10 | 10 to 100 | 10 to 100 | > 1000 | 1 to 10
COCC(=O)Nc1cccc(Nc2ncc(C(N)=O)c(NCc3ccccc3)n2)c1 [Example 29, 4-(benzylamino)-2-(3-(2-methoxyacetamido)phenylamino)pyrimidine-5-carboxamide] | 37.5 | 80 | 1 to 10 | 10 to 100 | 10 to 100 | > 1000 | 1 to 10
COC(=O)Nc1cccc(Nc2ncc(C(N)=O)c(NCc3ccccc3)n2)c1 [Example 30, methyl 3-(4-(benzylamino)-5-carbamoylpyrimidin-2-ylamino)phenylcarbamate] | 8.3 | 63 | 1 to 10 | 10 to 100 | 100 to 1000 | 100 to 1000 | 1 to 10
CCOC(=O)Nc1cccc(Nc2ncc(C(N)=O)c(NCc3ccccc3)n2)c1 [Example 31, ethyl 3-(4-(benzylamino)-5-carbamoylpyrimidin-2-ylamino)phenylcarbamate] | 13.7 | 37 | 1 to 10 | 100 to 1000 | 100 to 1000 | > 1000 | 10 to 100
COC(=O)Nc1cc(Nc2ncc(C(N)=O)c(NCc3ccccc3)n2)ccc1Cl [Example 32, methyl 5-(4-(benzylamino)-5-carbamoylpyrimidin-2-ylamino)-2-chlorophenylcarbamate] | 27 | 65 | 10 to 100 | 100 to 1000 | 100 to 1000 | > 1000 | 10 to 100
CC(=O)Nc1cccc(Nc2ncc(C(N)=O)c(NC[C@H](C)O)n2)c1 [Example 82, (S)-2-(3-acetamidophenylamino)-4-(2-hydroxypropylamino)pyrimidine-5-carboxamide] |  |  | 10 to 100 | 10 to 100 | 100 to 1000 | 100 to 1000 | 10 to 100
CC(=O)Nc1cccc(Nc2ncc(C(N)=O)c(NC[C@@H](O)CO)n2)c1 [Example 83, (R)-2-(3-acetamidophenylamino)-4-(2,3-dihydroxypropylamino)pyrimidine-5-carboxamide] |  |  | 10 to 100 | 100 to 1000 | 100 to 1000 | > 1000 | 10 to 100
COC(CNc1nc(Nc2cccc(NC(C)=O)c2)ncc1C(N)=O)c1ccccc1 (stereo not shown) [Example 84, 2-(3-acetamidophenylamino)-4-(2-methoxy-2-phenylethylamino)pyrimidine-5-carboxamide] |  |  | 1 to 10 | 10 to 100 | 10 to 100 | 100 to 1000 | 10 to 100
CC(=O)Nc1cccc(Nc2ncc(C(N)=O)c(N[C@@H](C)C(N)=O)n2)c1 [Example 85, (S)-2-(3-acetamidophenylamino)-4-(1-amino-1-oxopropan-2-ylamino)pyrimidine-5-carboxamide] |  |  | 10 to 100 | 100 to 1000 | 100 to 1000 | > 1000 | 10 to 100
COCC(=O)N(C)c1cccc(Nc2ncc(C(N)=O)c(N[C@H](C)c3ccccc3)n2)c1 [Example 86, (R)-2-(3-(2-methoxy-N-methylacetamido)phenylamino)-4-(1-phenylethylamino)pyrimidine-5-carboxamide] |  |  | 1 to 10 | 1 to 10 | 100 to 1000 | > 1000 | 10 to 100
CC(=O)N(C)c1cccc(Nc2ncc(C(N)=O)c(N[C@H](C)c3ccccc3)n2)c1 [Example 87, (R)-2-(3-(N-methylacetamido)phenylamino)-4-(1-phenylethylamino)pyrimidine-5-carboxamide] |  |  | 1 to 10 | 1 to 10 | 100 to 1000 | > 1000 | 10 to 100
COCC(=O)N(C)c1cccc(Nc2ncc(C(N)=O)c(NC(C)C)n2)c1 [Example 88, 4-(isopropylamino)-2-(3-(2-methoxy-N-methylacetamido)phenylamino)pyrimidine-5-carboxamide] |  |  | 10 to 100 | 10 to 100 | 10 to 100 | > 1000 | 10 to 100
COCC(=O)N(C)c1cccc(Nc2ncc(C(N)=O)c(NC3CCCC3)n2)c1 [Example 89, 4-(cyclopentylamino)-2-(3-(2-methoxy-N-methylacetamido)phenylamino)pyrimidine-5-carboxamide] |  |  | 1 to 10 | 1 to 10 | 10 to 100 | > 1000 | 10 to 100
COCC(=O)N(C)c1cccc(Nc2ncc(C(N)=O)c(NCc3ccccc3)n2)c1 [Example 90, 4-(benzylamino)-2-(3-(2-methoxy-N-methylacetamido)phenylamino)pyrimidine-5-carboxamide] |  |  | 1 to 10 | 10 to 100 | 10 to 100 | > 1000 | 10 to 100
